The term IC50 denotes the midpoint of a concentration-inhibition curve. High values mean lower potency, low ones higher potency.

For the assay, the target named is T1, PDE5 enzyme (Homo sapiens, UniProt O76074).
T1 construct: The PDE5 enzyme isolated from human platelets; from tissue; host or cells: human platelets
Kind of assay: Method 1: Human Platelet PDE5 Enzyme Inhibition Scintillation Proximity Assay. Conditions: METHOD 1: PDE5 IC50, Table B, WO2004096810 examples. The assay is classed as biochemical. In short, it runs like this: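 Human platelet PDE5 hydrolysing 500 nM cGMP (3:1 unlabelled:[3H]) in Tris-HCl pH 7.4 with MgCl2 and BSA, 60 min at 30 °C. Reaction stopped with yttrium silicate SPA beads and [3H]GMP counted by scintillation. IC50 from sigmoid curves over a 10-point half-log dilution series, in duplicate.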
In general terms: In a scintillation proximity assay essentially only radioactivity close to the scintillant gives light.
`COCCn1nc(C)c2nc(N3C[C@@H](C)NC[C@@H]3C)nc(Nc3ccc(C)cn3)c21` [WO2004096810 Example 143] returned an IC50 of 81.2 nM.
With `CCOCCn1nc(CO)c2nc(N(C)CC)nc(Nc3cc(C)ccn3)c21` [WO2004096810 Example 181] the figure was 0.39 nM; with `COCCCn1nc(C)c2nc(N[C@@H](C)CO)nc(Nc3cc(C)cc(C)n3)c21` [WO2004096810 Example 114], 60.6 nM; with `CCCc1nn(C)c2c(Nc3cc(C)ccn3)nc(NCc3ccc(OC)cc3)nc12` [WO2004096810 Example 71], 152 nM.
With `CCOCCn1nc(C)c2nc(N3C[C@H](C)NC[C@H]3C)nc(Nc3ccc(C)cn3)c21` [WO2004096810 Example 137] the figure was 1.43 nM.
`CCOCCn1nc(C)c2nc(N3CC4C[C@@H]3CN4)nc(Nc3cc(C)ccn3)c21` [WO2004096810 Example 244] returned an IC50 of 2.54 nM.
`CCOCCn1nc(C)c2nc(N3CCN[C@H](C(C)C)C3)nc(Nc3ccncn3)c21` [WO2004096810 Example 13] had an IC50 of 19.1 nM.
With `CCOCCn1nc(COC)c2nc(N(C)CC)nc(Nc3cc(C)ccn3)c21` [WO2004096810 Example 212] the figure was 0.13 nM.
With `CCCc1nn(C)c2c(Nc3cc(C)ccn3)nc(NCCOC)nc12` [WO2004096810 Example 72] the figure was 177 nM; with `Cc1ccnc(Nc2nc(N3CCNCC3)nc3c(C)n(CCC(C)C)nc23)c1` [WO2004096810 Example 174], 432 nM.
`CCOCCn1nc(CC)c2nc(N3CCN[C@H](C(C)C)C3)nc(Nc3ccncn3)c21` [WO2004096810 Example 17] displayed an IC50 of 22.4 nM.
In turn, `CCOCCn1nc(C)c2nc(N3CCN[C@H](C)C3)nc(Nc3cccc(OC)n3)c21` [WO2004096810 Example 196] came in with an IC50 of 0.56 nM.
The value for `CCOCCn1nc(C)c2nc(N3CCN[C@@H](C(C)C)C3)nc(Nc3ccncn3)c21` [WO2004096810 Example 14] was 42.1 nM; that for `CCOCCn1nc(C)c2nc(N3C[C@@H]4C[C@H]3CN4C)nc(Nc3ccncn3)c21` [WO2004096810 Example 210] was 82.7 nM.
The value for `Cc1ccnc(Nc2nc(N3CCNCC3)nc3c(C)nn(CC(F)(F)F)c23)c1` [WO2004096810 Example 170] was 2100 nM.
`CCOCCn1nc(CO)c2nc(N(C)CC)nc(Nc3ccncn3)c21` [WO2004096810 Example 228] gave an IC50 of 3.09 nM.
With `CCCc1nn(C)c2c(Nc3ccncn3)nc(N3CCN[C@@H](C)C3)nc12` [WO2004096810 Example 81] the figure was 118 nM; with `CCOCCn1nc(C)c2nc(N3C[C@@H](C)NC[C@@H]3C)nc(Nc3ccc(C)cn3)c21` [WO2004096810 Example 146], 32.1 nM.
`CCOCCn1nc(C)c2nc(N3CCN[C@H](C)C3)nc(Nc3cc(C(F)(F)F)ccn3)c21` [WO2004096810 Example 222]: inhibition was half-maximal at 10.1 nM (IC50).
In the case of `COCCn1nc(C)c2nc(N3C[C@H](C)NC[C@H]3C)nc(Nc3cc(C)ccn3)c21` [WO2004096810 Example 133], the IC50 came to 4.45 nM.
With `CCCc1nn(C)c2c(Nc3ccc(C)cn3)nc(N3CCNCC3)nc12` [WO2004096810 Example 34] the figure was 50.2 nM.
Compound `COCCn1nc(C)c2nc(N3C[C@@H](C)NC[C@@H]3C)nc(Nc3cc(C)ccn3)c21` [WO2004096810 Example 142] yielded an IC50 of 22.7 nM.
The value for `CCOCCn1nc(C)c2nc(N3C[C@@H]4C[C@H]3CN4)nc(Nc3cnc(C)c(C)c3)c21` [WO2004096810 Example 233] was 3.85 nM.
Regarding `CCOCCn1nc(CC)c2nc(N3C[C@H](C)NC[C@H]3C)nc(Nc3ccc(C)cn3)c21` [WO2004096810 Example 140], the IC50 was 1.95 nM.
With `CCc1nn(CCOC)c2c(Nc3cc(C)ccn3)nc(N3CCC(O)CC3)nc12` [WO2004096810 Example 94] the figure was 43.2 nM.
In turn, `COCCn1nc(C)c2nc(N(C)[C@@H]3CCN(C)C3)nc(Nc3cc(C)ccn3)c21` [WO2004096810 Example 155] returned an IC50 of 13.4 nM.
The value for `CCCc1nn(C)c2c(Nc3ccc(C)cn3)nc(NC3CNC3)nc12` [WO2004096810 Example 37] was over 10000 nM; that for `CCOCCn1nc(CC)c2nc(N(C)[C@H]3CCN(C)C3)nc(Nc3ccncn3)c21` [WO2004096810 Example 193] was 1.01 nM; that for `CCOCCn1nc(C)c2nc(N(C)[C@@H]3CCN(C)C3)nc(Nc3cc(C)ccn3)c21` [WO2004096810 Example 156] was 1.8 nM.
With `CCOCCn1nc(C)c2nc(N3C[C@@H](C)NC[C@@H]3C)nc(Nc3cc(C)ccn3)c21` [WO2004096810 Example 145] the figure was 7.15 nM; with `CCOCCn1nc(C)c2nc(N(C)CCN(C)C)nc(Nc3ccncn3)c21` [WO2004096810 Example 216], 60.9 nM.
Compound `Cc1ccc(Nc2nc(N3CCN[C@H](C)C3)nc3c(C)nn(C(C)C)c23)nc1` [WO2004096810 Example 9] displayed a 50% inhibitory concentration (IC50) of 508 nM.
`CCOCCn1nc(COC)c2nc(N(C)CCOC)nc(Nc3cc(C)ccn3)c21` [WO2004096810 Example 226] registered an IC50 of 0.83 nM.
`CCOCCn1nc(C)c2nc(N3CCN[C@H](C)C3)nc(Nc3ccnc(C)n3)c21` [WO2004096810 Example 220] had an IC50 of 3.6 nM.
Regarding `CCc1nn(CCOC)c2c(Nc3cc(C)ccn3)nc(NC)nc12` [compound 1], the IC50 is 16.2 nM.
The value for `CCOCCn1nc(C)c2nc(N3CCN[C@H](C)C3)nc(Nc3nccc(C)n3)c21` [WO2004096810 Example 221] was 35.4 nM.
With `CCc1nn(CCOC)c2c(Nc3cc(C)ccn3)nc(N3CCNCC3)nc12` [WO2004096810 Example 152] the figure was 12.1 nM; with `CCCc1nn(C)c2c(Nc3cc(C)ccn3)nc(N3CCN[C@@H](C)C3)nc12` [WO2004096810 Example 39], 456 nM; with `CCOCCn1nc(C)c2nc(N3CCN[C@H](C)C3)nc(Nc3ccc(OC)nc3)c21` [WO2004096810 Example 194], 0.56 nM.
With `CCCc1nn(C)c2c(Nc3cc(OC)ncn3)nc(NC)nc12` [WO2004096810 Example 84] the figure was 247 nM.
Take `CCCc1nn(C)c2c(NC3CCC(OC)CC3)nc(N3CCNCC3)nc12` (stereo not shown) [WO2004096810 Example 127]: the IC50 was 7580 nM.
With `Cc1nn(C(C)C)c2c(Nc3ccncn3)nc(N3CCN[C@H](C)C3)nc12` [WO2004096810 Example 24] the figure was 37.7 nM.
`CCOCCn1nc(C)c2nc(N3CC(NC)C3)nc(Nc3cc(C)ccn3)c21` [WO2004096810 Example 204] yielded an IC50 of 24.1 nM.
With `Cc1ccnc(Nc2nc(N3C[C@@H]4C[C@H]3CN4)nc3c(C)nn(CCOCC(F)(F)F)c23)c1` [WO2004096810 Example 231] the figure was 10.3 nM.
With `CCOCCn1nc(COC)c2nc(N3CCN[C@H](C)C3)nc(Nc3cccc(C)n3)c21` [WO2004096810 Example 211] the figure was 1.57 nM.
With `CCc1nn(CCOC)c2c(Nc3cc(C)ccn3)nc(NCCn3cccn3)nc12` [WO2004096810 Example 153] the figure was 19.5 nM.

Source of the values: patent publication US8518956B2, “1-(1-(2-ethoxyethyl)-3-ethyl-7-(4-methylpyridin-2-ylamino)-1H-pyrazolo[4,3-d]pyrimidin-5-yl) piperidine-4-carboxylic acid and salts thereof” (priority 2005, dated 2013).
